According to the CheMixHub ionic liquid set:
± gives the uncertainty stated by the source.

Assay: xn = mol fraction of the nth substance listed
Conditions: for electrical conductivity: frequency 0.03 MHz

CCCCCC[n+]1ccn(C)c1.[Br-] + OC[C@H]1O[C@@](CO)(O[C@H]2O[C@H](CO)[C@@H](O)[C@H](O)[C@H]2O)[C@@H](O)[C@@H]1O + O
viscosity [mPa·s], 100 kPa
Conditions	288.15 K	298.15 K	308.15 K	318.15 K
x2 = 0.0009263, x1 = 0.001797	1.271 ± 0.027	0.986 ± 0.021	0.785 ± 0.017	0.651 ± 0.014
x2 = 0.000945, x1 = 0.003588	1.33 ± 0.03	1.022 ± 0.022	0.827 ± 0.018	0.683 ± 0.015
x2 = 0.001856, x1 = 0.001795	1.334 ± 0.028	1.034 ± 0.022	0.826 ± 0.018	0.681 ± 0.015
x2 = 0.001901, x1 = 0.003584	1.403 ± 0.03	1.07 ± 0.02	0.87 ± 0.02	0.711 ± 0.015
x2 = 0.001946, x1 = 0.005366	1.495 ± 0.032	1.142 ± 0.024	0.891 ± 0.019	0.74 ± 0.02
x2 = 0.002732, x1 = 0.001794	1.394 ± 0.03	1.074 ± 0.023	0.859 ± 0.018	0.711 ± 0.015
x2 = 0.002803, x1 = 0.003581	1.468 ± 0.031	1.123 ± 0.024	0.904 ± 0.019	0.74 ± 0.02
x2 = 0.002858, x1 = 0.005362	1.568 ± 0.033	1.191 ± 0.025	0.949 ± 0.02	0.78 ± 0.02
x2 = 0.003653, x1 = 0.001792	1.453 ± 0.031	1.124 ± 0.024	0.897 ± 0.019	0.735 ± 0.016
x2 = 0.003711, x1 = 0.003578	1.538 ± 0.033	1.173 ± 0.025	0.941 ± 0.02	0.775 ± 0.017
x2 = 0.003775, x1 = 0.005357	1.637 ± 0.035	1.245 ± 0.026	0.99 ± 0.02	0.807 ± 0.017
x2 = 0.004453, x1 = 0.003575	1.596 ± 0.034	1.222 ± 0.026	0.975 ± 0.021	0.805 ± 0.017
x2 = 0.004552, x1 = 0.005352	1.699 ± 0.036	1.293 ± 0.027	1.023 ± 0.022	0.834 ± 0.018
x2 = 0.005421, x1 = 0.001789	1.601 ± 0.034	1.229 ± 0.026	0.975 ± 0.021	0.793 ± 0.017
x2 = 0.005541, x1 = 0.003571	1.672 ± 0.035	1.287 ± 0.027	1.018 ± 0.022	0.835 ± 0.018
x2 = 0.005596, x1 = 0.005347	1.794 ± 0.038	1.365 ± 0.029	1.078 ± 0.023	0.875 ± 0.019
x2 = 0.006166, x1 = 0.001788	1.649 ± 0.035	1.272 ± 0.027	1.01 ± 0.02	0.82 ± 0.02
x2 = 0.006277, x1 = 0.003569	1.745 ± 0.037	1.342 ± 0.028	1.061 ± 0.023	0.868 ± 0.018
x2 = 0.006372, x1 = 0.005343	1.862 ± 0.039	1.416 ± 0.03	1.114 ± 0.024	0.906 ± 0.019
x2 = 0.007317, x1 = 0.001786	1.761 ± 0.037	1.347 ± 0.029	1.059 ± 0.023	0.863 ± 0.018
x2 = 0.007401, x1 = 0.005337	1.984 ± 0.042	1.498 ± 0.032	1.184 ± 0.025	0.952 ± 0.02
x2 = 0.007611, x1 = 0.003564	1.874 ± 0.04	1.438 ± 0.03	1.13 ± 0.02	0.917 ± 0.02
x2 = 0.00788, x1 = 0.001785	1.826 ± 0.039	1.395 ± 0.03	1.088 ± 0.023	0.894 ± 0.019
x2 = 0.008047, x1 = 0.003562	1.908 ± 0.04	1.463 ± 0.031	1.152 ± 0.024	0.928 ± 0.02
x2 = 0.008846, x1 = 0.005329	2.121 ± 0.045	1.595 ± 0.034	1.25 ± 0.03	1.009 ± 0.021

CCCCCC[n+]1ccn(C)c1.[I-] + [I-].[Li+]
101 kPa
Conditions	electrical conductivity [S/m]	viscosity [mPa·s]
288.1 K, x1 = 0.59	0.000226 ± 1.4e-05	–
293 K, x1 = 0.59	0.000466 ± 2.8e-05	–
298.1 K, x1 = 0.59	0.000891 ± 5.3e-05	15200 ± 1900
303 K, x1 = 1	–	1175 ± 100
308.1 K, x1 = 0.59	0.0032 ± 0.00019	4263 ± 450
313 K, x1 = 0.59	0.00537 ± 0.00032	–
318.1 K, x1 = 0.59	0.00863 ± 0.00052	–
328.1 K, x1 = 1	–	213 ± 15
368.1 K, x1 = 1	–	38.5 ± 2.5
